Data: ChEMBL document CHEMBL1201862, “PubChem BioAssay data set” (2004)
Activity calls are given as the source filed them.

Legend:
[1] = biological target: T1, Corticotropin-releasing factor receptor 2/Corticotropin-releasing factor-binding protein (Homo sapiens, UniProt P24387+Q13324); assay: activators of CRF receptor 2 with binding protein – uHTS hits, confirmation (AID 602473); type: functional; settings: read-out: EC50_Mean
T1 sequence (Q13324 whole entry): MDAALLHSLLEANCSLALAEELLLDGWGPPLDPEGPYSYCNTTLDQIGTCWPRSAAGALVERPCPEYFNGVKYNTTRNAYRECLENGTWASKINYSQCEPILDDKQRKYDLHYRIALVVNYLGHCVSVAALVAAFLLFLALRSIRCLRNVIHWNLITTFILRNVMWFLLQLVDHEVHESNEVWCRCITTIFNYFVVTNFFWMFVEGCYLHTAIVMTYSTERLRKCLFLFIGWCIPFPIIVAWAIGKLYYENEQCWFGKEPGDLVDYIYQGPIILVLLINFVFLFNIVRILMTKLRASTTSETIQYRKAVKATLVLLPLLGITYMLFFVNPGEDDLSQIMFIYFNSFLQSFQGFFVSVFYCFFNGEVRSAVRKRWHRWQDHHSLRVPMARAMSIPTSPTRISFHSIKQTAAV
T1 sequence (P24387 whole entry): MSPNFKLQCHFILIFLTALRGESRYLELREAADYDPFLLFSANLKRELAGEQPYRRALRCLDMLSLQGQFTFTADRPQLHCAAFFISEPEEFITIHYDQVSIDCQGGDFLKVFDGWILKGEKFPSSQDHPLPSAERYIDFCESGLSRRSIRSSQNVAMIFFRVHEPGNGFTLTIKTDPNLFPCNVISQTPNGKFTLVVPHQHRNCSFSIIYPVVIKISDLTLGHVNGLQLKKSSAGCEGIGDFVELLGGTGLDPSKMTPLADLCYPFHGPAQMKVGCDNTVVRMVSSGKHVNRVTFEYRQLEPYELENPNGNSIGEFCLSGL

[2] = biological target: T1, Corticotropin-releasing factor receptor 2/Corticotropin-releasing factor-binding protein; assay: Dose Response confirmation of uHTS hits for small molecule antagonists of the CRF-binding protein and CRF-R2 receptor complex.; type: functional; settings: read-out: IC50_Mean
[3] = biological target: T2, Rac GTPase-activating protein 1 (Homo sapiens, UniProt Q9H0H5); assay: MgcRacGAP GTPase-activating activity inhibitors, confirmation, biochemical, ADP Hunter fluorescence, primary and confirmatory (AID 624330); type: functional
T2 sequence (Q9H0H5 whole entry): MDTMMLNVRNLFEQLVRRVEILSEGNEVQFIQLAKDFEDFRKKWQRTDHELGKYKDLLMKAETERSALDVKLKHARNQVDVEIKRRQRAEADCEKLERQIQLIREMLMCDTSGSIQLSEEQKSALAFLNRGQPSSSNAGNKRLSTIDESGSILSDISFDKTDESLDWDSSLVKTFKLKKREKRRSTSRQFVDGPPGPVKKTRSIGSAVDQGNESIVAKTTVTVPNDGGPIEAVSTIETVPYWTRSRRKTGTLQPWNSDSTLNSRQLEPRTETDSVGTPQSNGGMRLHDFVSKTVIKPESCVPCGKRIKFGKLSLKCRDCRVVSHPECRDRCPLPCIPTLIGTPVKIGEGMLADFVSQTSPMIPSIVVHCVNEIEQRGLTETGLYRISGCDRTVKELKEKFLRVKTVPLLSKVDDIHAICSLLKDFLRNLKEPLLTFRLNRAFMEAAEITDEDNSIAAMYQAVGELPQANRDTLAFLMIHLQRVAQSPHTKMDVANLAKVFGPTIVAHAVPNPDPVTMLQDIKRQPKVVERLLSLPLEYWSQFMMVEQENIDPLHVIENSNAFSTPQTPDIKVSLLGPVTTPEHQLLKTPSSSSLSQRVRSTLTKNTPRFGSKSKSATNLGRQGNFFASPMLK

cells = type: functional
[4] = tested on: Streptococcus sp. 'group A'; assay: growth inhibition of control SK(-) GAS strain, dose response, counter-screen for streptokinase expression inhibitor project, luminescence, kanamycin, BacTiterGlo, confirmation (AID 1900); type: functional, organism-based
Streptococcus = assay: Group A Streptococcus viability loss, dose response, counter-screen for streptokinase expression inhibitor project, luminescence, BacTiterGlo (AID 1915); type: functional, organism-based;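 note: potency for reduction of bacterial viability or growth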
Streptokinase A = biological target: T3, Streptokinase A (Streptococcus pyogenes serotype M1, UniProt P10520); assay: S. pyogenes streptokinase expression inhibitors, potency, dose response, plasminogen activation absorbance, OD405 (AID 1914); type: functional, Streptococcus pyogenes M1 GAS;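 note: secreted streptokinase activity via plasminogen activation per viability signal from cell pellet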
T3 sequence (P10520 whole entry): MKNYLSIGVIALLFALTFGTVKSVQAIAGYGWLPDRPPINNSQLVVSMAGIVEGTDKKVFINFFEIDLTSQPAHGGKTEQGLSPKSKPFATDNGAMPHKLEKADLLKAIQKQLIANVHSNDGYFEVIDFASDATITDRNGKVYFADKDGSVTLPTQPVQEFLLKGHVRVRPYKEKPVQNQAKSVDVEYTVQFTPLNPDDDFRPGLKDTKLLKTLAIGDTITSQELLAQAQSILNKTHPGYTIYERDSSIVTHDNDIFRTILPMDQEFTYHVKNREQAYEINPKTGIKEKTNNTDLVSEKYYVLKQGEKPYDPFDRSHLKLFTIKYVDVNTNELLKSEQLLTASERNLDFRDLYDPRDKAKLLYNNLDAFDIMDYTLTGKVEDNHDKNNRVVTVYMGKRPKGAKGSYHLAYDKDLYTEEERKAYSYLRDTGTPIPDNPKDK

SMILES	EC50 [1]	IC50 [2]	also measured
CN(C)c1ncnc2c1N=C1CC(C)(C)CC(NCCCC(=O)O)=C1S2	> 53 µM (inactive)	> 47.1 µM (inactive)	IC50 [3]: 78.8 µM (active)
Cc1nn(-c2ccc([N+](=O)[O-])cc2)c(N)c1-c1ccccc1	> 53 µM (inactive)	> 47.1 µM (inactive)	
CC(C)C(=O)Nc1cccc(-c2nc3ccccc3c(=O)o2)c1			IC50 (cells): 20.7 µM (active)
CCOC(=O)c1c(C)[nH]c(C)c1C(=O)COC(=O)/C=C/c1ccc(Cl)cc1	> 53 µM (inactive)	> 47.1 µM (inactive)	
CCCN1CCN(C2CCCCC2NS(=O)(=O)c2ccc(Cl)cc2)CC1 (centres undefined)	> 53 µM (inactive)	> 47.1 µM (inactive)	
O=[N+]([O-])c1ccc(CN2CCN(c3ccccc3)CC2)o1			IC50 (cells): 0.13 µM (active)
Cc1cc(C)n(-c2nc(SCC(=O)O)c3c4c(sc3n2)CCCC4)n1			EC50 [4]: 8.77 µM (active); EC50 (Streptococcus): > 150 µM (not active); EC50 (Streptokinase A): > 150 µM (not active)
CC(C)CCOP(=O)(c1ccc(N(C)C)cc1)C(Nc1ccccc1)c1ccc(N(C)C)cc1 (centres undefined)	> 53 µM (inactive)	> 47.1 µM (inactive)	
COc1cccc(C2C(C(=O)c3ccc(C)o3)=C(O)C(=O)N2CCN2CCOCC2)c1OC (centres undefined)	> 53 µM (inactive)	> 47.1 µM (inactive)	
Cc1ccc(S(=O)(=O)N2CCC(c3nc4c(nnn4Cc4ccccc4)c(=O)[nH]3)CC2)cc1	> 53 µM (inactive)	> 47.1 µM (inactive)	
O=C(COc1ccccc1)NCCSCc1ccc(Cl)cc1			IC50 (cells): 22.2 µM (active)
CCN(CC(=O)Nc1ccc(OC)cc1)C(=O)c1cc(S(=O)(=O)N2CCOCC2)ccc1N1CCCC1	> 53 µM (inactive)	> 47.1 µM (inactive)	
CC1CCN(C(=O)c2nc[nH]c2C(=O)N[C@@H](C)C(=O)OC(C)(C)C)CC1	> 53 µM (inactive)	> 47.1 µM (inactive)	
O=[N+]([O-])c1ccccc1C=NNC(=S)NN=Cc1ccccc1[N+](=O)[O-]	> 53 µM (inactive)	> 47.1 µM (inactive)	
O=C(COC(=O)c1cc(Br)ccc1Cl)NC1CCCC1			IC50 (cells): 18.2 µM (active)
CCC/C(=N/CC(=O)O)C1=C(O)C(C(=O)OC)C(C)(C)CC1=O (centres undefined)	> 53 µM (inactive)	> 47.1 µM (inactive)	
COC(=O)c1ccc(/C(O)=C(\C#N)c2nc3ccccc3s2)cc1	> 53 µM (inactive)	3.93 µM (active)	
CC/C(=N\NC(=S)Nc1cccc(C)c1)c1ccccc1			EC50 [4]: 12.3 µM (active); EC50 (Streptococcus): > 50 µM (not active); EC50 (Streptokinase A): 21.3 µM (active)
CC(C)(C)C(=O)/C=C/Nc1ccccc1O			IC50 (cells): 3.27 µM (active)
COc1ccc(C2CC(c3cccs3)=NN2C(=O)c2ccccc2)cc1OC (centres undefined)	> 53 µM (inactive)	> 47.1 µM (inactive)	
c1ccc(C2=Nc3ccccc3OC2)cc1			IC50 (cells): 7.95 µM (active)
